What all share (type): cell-based, human
The test system of data set [1] is NEUROD1. As to the kind of experiment: Activation of native gene expression in 293T cells, qPCR. The following applies: for induction of NEUROD1: 200 ng/mL doxycycline, NAVIa-edited 293T; for increase in NEUROD1 gene expression: idpTV-edited cells. As for the experimental part:
(§1) 293T and HCT116 cells were obtained from the American Tissue Collection Center (ATCC) and were maintained in DMEM supplemented with 10% fetal bovine serum and 1% penicillin/streptomycin at 37° C. with 5% CO2. 293T and HCT116 cells were transfected with Lipofectamine 2000 (Invitrogen) according to manufacturer's instructions. Transfection efficiencies were routinely higher than 80% for 293T cells and higher than 50% for HCT116 cells as determined by fluorescent microscopy following delivery of a control GFP expression plasmid. Induction of gene expression, unless otherwise noted, was carried out with 200 ng/mL doxycycline in DMEM prepared with 10% tetracycline-free FBS for 4 days.
(§2) Cells were harvested and flash-frozen in liquid nitrogen prior to RNA-extraction using the RNeasy Plus RNA isolation kit (Qiagen) according to manufacturer's instructions. cDNA synthesis was carried out using the qScript cDNA Synthesis Kit (Quanta Biosciences) from 1 μg of RNA and reactions were performed as directed by the supplier. For RT-qPCR, SsoFast EvaGreen Supermix (Bio-Rad) was added to cDNA and primers targeting the gene of interest and GAPDH (Table 10). Following 30 s at 95° C., qPCR (5 s at 95° C., 20 s at 55° C., 40 total cycles) preceded melt-curve analysis of the product by the CFX Connect Real-Time System (Bio-Rad). Ct values were used to calculate changes in expression level, relative to GAPDH and control samples by the 2^−ΔΔCt method.
In order to evaluate this gene activation architecture in the context of the human genome, three target genes were selected whose reported levels of activation utilizing CRISPRa are either high (ASCL1, ˜10^3-fold), medium (NEUROD1, ˜10^2-fold), or low (POU5F1, ˜10-fold). The primary sgRNAs targeting the genome were co-transfected into 293T cells with three plasmids containing (1) an expression cassette for active Cas9, (2) customized cspTV, cdpTV or idpTV, and (3) a universal secondary sgRNA. Following transfection, cells with integration of the TV were selected using puromycin and, in cells transfected with the idpTV, gene expression was induced with doxycycline. In parallel, one sgRNA or a mixture of 4 sgRNAs (previously validated for use with CRISPRa) were co-transfected into 293 Ts with dCas9-VPR for comparison of the NAVIa with CRISPRa. Gene expression using an individual sgRNA directing dCas9-VPR to target promoters was increased ˜10-fold for all targets tested but not statistically significant. Utilization of 4 sgRNAs simultaneously activated gene expression more effectively than 1 sgRNA (ASCL1: ˜1800-fold, NEUROD1: ˜2900-fold, POU5F:1 ˜90-fold). […] However, the idpTV (ASCL1: ˜7200-fold, NEUROD1: ˜76000-fold, POU5F1: ˜5370-fold) surpassed activation obtained using dCas9-VPR using 4 sgRNAs (FIG. 14B).
(In general: Real-time PCR tracks product formation cycle by cycle.)

In data set [2] the test system is NEUROD1. As to the kind of experiment: NEUROD1 expression by qPCR in HCT116 and MRC-5 cells. On the procedure:
as §1, §2
To further explore the trends we observed in 293T cells, NeuroD1 was targeted using the cdpTV in other cell lines.

Data set [3] relates to HCT116 cells. As to the kind of experiment: Quantification of integration efficiency (colonies after antibiotic selection). To be noted: for Avg. Colonies: 450,000 cells transfected. On the procedure:
HCT116 cells were transfected with individual RGNs targeting either CTTN exon 8 or HLA-DRA, as well as Cas9, one universal RGN, and either one or two transfer vectors with expression cassettes conferring resistance to puromycin or puromycin and hygromycin. A total of 450,000 cells were transfected using 100 ng of each plasmid. The transfection efficiency was ˜55% as determined by FACS following delivery of a control GFP expression plasmid. Three days post transfection, 90% of cells from each well were harvested and replated into 10 cm dishes for selection with the appropriate antibiotics. Cells with monoallelic modifications were selected with puromycin whereas cells with biallelic modifications were selected with puromycin and hygromycin. Media and antibiotics were replenished every three days. Visible colonies appeared after approximately after one week. The number of clones for each transfection was counted and integration efficiency was determined as the ratio of the number of clonal cells derived from each transfection relative to the number of alleles modified by each specific sgRNA, as measured in experimental control samples using the surveyor assay.
Following selection in 10-cm plates with the appropriate antibiotic, total colonies were counted and divided by total cells transfected to obtain the overall editing efficiency of NAVI. This value was then adjusted to account for overall sgRNA editing efficiency, as measured by surveyor nuclease assay. This quantification was performed at 2 different loci using either a single or two antibiotics for selection.

Setting [4] is: selection Puromycin + Hygromycin.

For `C[C@H]1c2cccc(O)c2C(=O)C2=C(O)[C@]3(O)C(=O)C(C(N)=O)=C(O)[C@@H](N(C)C)[C@@H]3[C@@H](O)[C@@H]21` [doxycycline], the “induction of NEUROD1” value is reported as about 4000 fold in data set [1] (12 h), about 5000 fold in data set [1] (24 h), about 10000 fold in data set [1] (48 h) and about 15000 fold in data set [1] (96 h). Also, the “increase in NEUROD1 gene expression” value in data set [1] (doxycycline 2 ng/mL, 96 h) is about 337 fold; in data set [1] (doxycycline 2 μg/mL, 96 h), about 26015 fold. The “ratio of gene expression between samples with and without doxycycline treatment” value in data set [2] (heterozygous clones) is listed as about 426 fold; in data set [2] (homozygous clones), about 1486 fold; in data set [2] (pooled cells) it was about 22 fold.

For the molecule “HLA-DRA: sgRNA, protospacer GCTGTGCTGATGAGCGCTC, SEQ ID NO 9 (expressed or natural sequence)”, in data set [3] (selection Puromycin), the “% Efficiency (adjusted by indel %)” value is 26.40%, the “% Efficiency (colonies/transfected cells)” value was found to be 0.58% and the “Avg. Colonies” value is recorded as 2610. Further, in data set [3] (setting [4]), the “% Efficiency (adjusted by indel %)” value turned out to be 4.60%, the “% Efficiency (colonies/transfected cells)” value is 0.10% and the “Avg. Colonies” value stood at 453.

For “CTTN exon 8: sgRNA, protospacer GCGCTCTTGTCTACTCGGT, SEQ ID NO 8 (expressed or natural sequence)”, in data set [3] (selection Puromycin), the “% Efficiency (adjusted by indel %)” value was 12.00%, the “% Efficiency (colonies/transfected cells)” value worked out at 0.38% and the “Avg. Colonies” value came to 1726. Further, in data set [3] (setting [4]), the “% Efficiency (adjusted by indel %)” value came out at 5.00%, the “% Efficiency (colonies/transfected cells)” value stood at 0.16% and the “Avg. Colonies” value is reported as 725.

The values above are taken from US20180305719A1, “Vectors For Integration Of DNA Into Genomes And Methods For Altering Gene Expression And Interrogating Gene Function” (The Board of Trustees of the University of Illinois, priority 2017, published 2018).
